Patent US10821115B2, “Compounds that inhibit Mcl-1 protein” (priority 2017, dated 2020)
Like-named read-outs stand apart in the source and are kept apart here.

Assays:
[1] = target: recombinant human Mcl-1 (residues 171-327) / Bim interaction (Homo sapiens (Human), UniProt Q07820); assay: biochemical; format: binding; conditions: read-out: Mcl-1 HTRF IC50
[2] = system: human multiple myeloma cell line, OPM-2; assay: Cell viability assay (OPM-2 10 FBS), CellTiter-Glo; format: cell-based
Procedure, shortened: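 3000 cells/well, RPMI 1640 + 10% FBS; serial compound dilutions, 16 h, 37 °C/5% CO2.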

[3] = 0.1 nM Mcl-1(171-327), 0.05 nM biotin-Bim (51-76)
[4] = Homo sapiens, OPM-2, 16 h, read-out: OPM-2 10% FBS IC50 IP, OPM-2 cells, 10% FBS, 16 h incubation
[5] = TR-FRET, Mcl-1(171-327) / biotin-Bim (51-76)
[6] = read-out: OPM-2 10% FBS IC50 IP, OPM-2 cells, 10% FBS, 16 h, CellTiter-Glo
[7] = Homo sapiens, OPM-2, 16 h, read-out: OPM-2 10% FBS IC50 IP, OPM-2 cells, 10% FBS, 16 h, CellTiter-Glo

recombinant human Mcl-1 (residues 171-327) / Bim interaction, sequence (Q07820 171-327): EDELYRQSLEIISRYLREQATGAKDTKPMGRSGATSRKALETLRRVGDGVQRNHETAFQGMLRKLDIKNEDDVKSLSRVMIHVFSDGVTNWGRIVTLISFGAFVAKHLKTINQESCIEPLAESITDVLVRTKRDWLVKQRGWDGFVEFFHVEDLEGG

COCC(C)(C)N1CCN(C[C@]2(OC)/C=C/C[C@H](C)[C@@H](C)S(=O)(=O)NC(=O)c3ccc4c(c3)N(C[C@@H]3CC[C@H]32)C[C@@]2(CCCc3cc(Cl)ccc32)CO4)CC1 [Example 297, (1S,3′R,6′R,7′S,8′E,11′S,12′R)-6-chloro-7′-methoxy-7′-((4-(2-methoxy-1,1-dimethylethyl)-1-piperazinyl)methyl)-11′,12′-dimethyl-3,4-dihydro-2H,15′H-spiro[naphthalene-1,22′-[20]oxa[13]thia[1,14]diazatetracyclo [14.7.2.0~3,6~.0~19,24~]pentacosa[8,16,18,24]tetraen]-15′-one 13′,13′-dioxide] was tested. Which IC50 [1, 3] did it give?
The IC50 was 0.128 nM.

What about the IC50 [2, 4] of the same molecule?
Its IC50 is 66 nM.

Which results are given for C[C@@H]1[C@@H](C)CCC[C@@](O)(CS(=O)(=O)N2CCN(C)CC2)[C@@H]2CC[C@H]2CN2C[C@@]3(CCCc4cc(Cl)ccc43)COc3ccc(cc32)C(=O)NS1(=O)=O [Example 100138, (1S,3′R,6′R,7′S,11′S,12′R)-6-chloro-7′-hydroxy-11′,12′-dimethyl-7′-(((4-methyl-1-piperazinyl)sulfonyl)methyl)-3,4-dihydro-2H,15′H-spiro[naphthalene-1,22′-[20]oxa[13]thia[1,14]diazatetracyclo [14.7.2.0~3,6~.0~19,24~]pentacosa[16,18,24]trien]-15′-one 13′,13′-dioxide]?
IC50 [1, 5]: 0.549 nM; IC50 [2, 6]: 342 nM

Which results are given for CO[C@@]1(C[C@@H](C)O)/C=C/C[C@H](C)[C@@H](C)S(=O)(=O)NC(=O)c2ccc3c(c2)N(C[C@@H]2CC[C@H]21)C[C@@]1(CCCc2cc(Cl)ccc21)CO3 [Example 100435, (1S,3′R,6′R,7′S,8′E,11′S,12′R)-6-chloro-7′-((2R)-2-hydroxypropyl)-7′-methoxy-11′,12′-dimethyl-3,4-dihydro-2H,15′H-spiro[naphthalene-1,22′-[20]oxa[13]thia[1,14]diazatetracyclo [14.7.2.0~3,6~.0~19,24~]pentacosa[8,16,18,24]tetraen]-15′-one 13′,13′-dioxide]?
IC50 [1, 5]: 0.055 nM; IC50 [2, 7]: 305 nM

How did the IC50 [1, 3] turn out when CO[C@]1(CN2C[C@H]3C[C@@H]2CN3C(C)C)/C=C/C[C@H](C)[C@@H](C)S(=O)(=O)NC(=O)c2ccc3c(c2)N(C[C@@H]2CC[C@H]21)C[C@@]1(CCCc2cc(Cl)ccc21)CO3 [Example 314, (1S,3′R,6′R,7′R,8′E,11′S,12′R)-6-chloro-7′-methoxy-11′,12′-dimethyl-7′-(((1R,4R)-5-(1-methylethyl)-2,5-diazabicyclo[2.2.1]hept-2-yl)methyl)-3,4-dihydro-2H,15′H-spiro[naphthalene-1,22′-[20]oxa[13]thia[1,14]diazatetracyclo [14.7.2.0~3,6~.0~19,24~]pentacosa[8,16,18,24]tetraen]-15′-one 13′,13′-dioxide] was run?
Its IC50 is 0.118 nM.

What about the IC50 [2, 4] of the same molecule?
The IC50 was 126 nM.

C[C@@H]1[C@@H](C)C/C=C/[C@@](O)(C#CCN2CCOCC2)[C@@H]2CC[C@H]2CN2C[C@@]3(CCCc4cc(Cl)ccc43)COc3ccc(cc32)C(=O)NS1(=O)=O [Example 100320, (1S,3′R,6′R,7′S,8′E,11′S,12′R)-6-chloro-7′-hydroxy-11′,12′-dimethyl-7′-(3-(4-morpholinyl)-1-propyn-1-yl)-3,4-dihydro-2H,15′H-spiro[naphthalene-1,22′-[20]oxa[13]thia[1,14]diazatetracyclo [14.7.2.0~3,6~.0~19,24~]pentacosa[8,16,18,24]tetraen]-15′-one 13′,13′-dioxide] was tested. Which IC50 [1, 5] did it give?
The IC50 was 1.2 nM.

And the IC50 [2, 6]?
The IC50 was 2140 nM.

How did the IC50 [1, 5] turn out when CO[C@]1(CCN2CCOCC2)/C=C/C[C@H](C)[C@@H](C)S(=O)(=O)NC(=O)c2ccc3c(c2)N(C[C@@H]2CC[C@H]21)C[C@@]1(CCCc2cc(Cl)ccc21)CO3 [Example 100365, (1S,3′R,6′R,7′R,8′E,11′S,12′R)-6-chloro-7′-methoxy-11′,12′-dimethyl-7′-(2-(4-morpholinyl)ethyl)-3,4-dihydro-2H,15′H-spiro[naphthalene-1,22′-[20]oxa[13]thia[1,14]diazatetracyclo [14.7.2.0~3,6~.0~19,24~]pentacosa[8,16,18,24]tetraen]-15′-one 13′,13′-dioxide] was run?
The IC50 was 0.257 nM.

What about the IC50 [2, 7] of the same molecule?
The IC50 was 245 nM.
